{"source": "ChEMBL document CHEMBL4190167", "about": "(Medchemcomm, 2016)", "key": {"MCF7": {"test_system": "MCF7", "assay": "Cytotoxicity against human MCF7 cells assessed as effect on cell viability up to 100 uM after 24 hrs by WST1 assay", "assay_type": "cell-based", "details": "mcf7, 24 h"}, "HUVEC": {"test_system": "HUVEC", "assay": "Cytotoxicity against HUVEC assessed as effect on cell viability up to 100 uM after 24 hrs by WST1 assay", "assay_type": "cell-based", "details": "human"}}, "data": [{"smiles": "COC(=O)[C@]1(C)CCC[C@]2(C)c3cc4oc(C)nc4cc3C[C@@H](O)[C@@H]12", "values": [{"measurement": "Activity", "setting": "MCF7", "result": "Non-Toxic"}, {"measurement": "Activity", "setting": "HUVEC", "result": "Non-Toxic"}]}, {"smiles": "CCOC(=O)[C@]1(C)CCC[C@]2(C)c3cc4occc4cc3C[C@@H](O)[C@@H]12", "values": [{"measurement": "Activity", "setting": "MCF7", "result": "Non-Toxic"}, {"measurement": "Activity", "setting": "HUVEC", "result": "Non-Toxic"}]}]}
